Data as given in patent EP0044955B1, “Liquid herbicide mixtures” (BASF Aktiengesellschaft, priority 1980, dated 1982).
Read-outs that look alike come from different tables or passages of the source.

What was measured:
Assay type in all cases: physicochemical
[1] = Water solubility of the solvents; details: for Wasserlöslichkeit der Lösungsmittel (%): Säureamide of Tabelle 4; for H2O-Löslichkeit des Lösungsmittels (%) Gew.-% Lösungs-mittel in Wasser: Tabelle 1 solvents
Excerpt: (§1) Beispiele von Säureamiden sind in der Tabelle 4 zusammengefaßt. Bestimmt wurden die Löslichkeiten der Substanzen 1 (Chloridazon) und 2 (Biscarbamat) wie sie in Tabelle 1 aufgeführt sind, sowie die Wasserlöslichkeit der Lösungsmittel.

[2] = Solubility of Substanz 1 and Substanz 2 in solvents at room temperature
Excerpt: as §1

[3] = Active ingredient stability in solvents (0,002 molar, HPLC); details: for remaining at 5 min, 2000 µM: Abbauzeit 5 min; for remaining at 20 min, 2000 µM: Abbauzeit 20 min; for remaining at 1 h, 2000 µM: Abbauzeit 60 min; for remaining at 7 min, 2000 µM: Abbauzeit 7 min; for remaining at 0.5 h, 2000 µM: Abbauzeit 30 min
Excerpt: In der Tabelle 2 wird die Wirkstoffstabilität der oben genannten Substanz 2 in verschiedenen Lösungsmitteln als Beispiel aufgeführt. […] Die Konzentration an Wirkstoff war bei diesen Untersuchungen 0,002 molar. Die Analyse wurde mit Hilfe der Hochdruckflüssigkeitschromatographie (HPLC) durchgeführt.

[4] = Phenmedipham degradation in formulations at various temperatures
Excerpt: Es wurde der Abbau des Phenmedipham bei verschiedenen Temperaturen verfolgt.

[5] = Stability of Phenmedipham in solvents, 24 h storage, HPLC; details: 24 Std., read-out: Restwirkstoff an Phenmedipham Wirkstoffgehalt
Procedure: In der folgenden Tabelle sind die Stabilitätsuntersuchungen von Phenmedipham bei verschiedenenen Temperaturen und konstanter Zeit zusammengefaßt. Es wurden 500 mg technischer Wirkstoff in 25 ml Lösungsmittel gelöst, die Lösungen bei der entsprechend gewählten Temperatur 24 Stunden gelagert und der Restwirkstoffgehalt analytisch mit Hilfe der HPLC-Methode bestimmt.

[6] = dimethylformamid (technisch), Dimethylformid (technisch), 50°C, read-out: Wirkstoffgehalt
[7] = dimethylformamid (technisch), Dimethylformid (technisch), 70°C, read-out: Wirkstoffgehalt
[8] = n-methylpyrrolidon, N-Methylpyrrolidon (rein 0,05% H2O), 50°C, read-out: Wirkstoffgehalt
[9] = n-methylpyrrolidone, N-Methylpyrrolidon (rein 0,05% H2O), 30°C, read-out: Wirkstoffgehalt

For CCN(CC)C(=O)c1cccc(C)c1 [compound 11], the “Wasserlöslichkeit der Lösungsmittel (%)” value [1] was 2,2%.
In the case of O=C1CCCCC1 [Cyclohexanon, reference compound], the “H2O-Löslichkeit des Lösungsmittels (%) Gew.-% Lösungs-mittel in Wasser” value [1] is reported as 3-4%.
For CCN(CC)C(=O)c1ccccc1 [compound 10], the “Wasserlöslichkeit der Lösungsmittel (%)” value [1] was 3,7%.
In the case of CCOC(=O)Nc1cccc(OC(=O)Nc2ccc(F)c(Cl)c2)c1 [Substanz 2, (3-Chlor-4-fluorphenyl)carbaminsäure-3(ethoxy-carbonyl)amino-phenylester], the “Löslichkeit in % (g Substanz in 100 g Lösung bei Raumtemperatur (RT 20°C))” value (“Löslichkeit in %” for short) ([2]; in Cyclohexanon) is reported as 35,0%, the “Löslichkeit in %” value ([2]; in Dimethylformamid) is reported as 47,2% and the “Löslichkeit in %” value ([2]; in Dimethylsulfoxid) is reported as 55,3%. The “Löslichkeit in %” value ([2]; in Isophoron) was 33,7%, the “Löslichkeit in %” value ([2]; in N-Methylpyrrolidon) was 30,8% and the “Löslichkeit in (%)” value ([2]; in Säureamid Nr. 1, Rt) was 39,9%. For the same compound, the “Löslichkeit in (%)” value ([2]; in Säureamid Nr. 2, Rt) was 37,0%, the “Löslichkeit in (%)” value ([2]; in Säureamid Nr. 3, Rt) was 43,8% and the “Löslichkeit in (%)” value ([2]; in Säureamid Nr. 4, Rt) was 45,4%. For the same compound, the “Löslichkeit in (%)” value ([2]; in Säureamid Nr. 5, Rt) was 41,6%, the “Löslichkeit in (%)” value ([2]; in Säureamid Nr. 6, Rt) was 49,0% and the “Löslichkeit in (%)” value ([2]; in Säureamid Nr. 7, Rt) was 38,8%. The “Löslichkeit in (%)” value ([2]; in Säureamid Nr. 8, Rt) was 45,5%, the “Löslichkeit in (%)” value ([2]; in Säureamid Nr. 9, Rt) was 29,1% and the “Löslichkeit in (%)” value ([2]; in Säureamid Nr. 10, Rt) was 39,5%. For the same compound, the “Löslichkeit in (%)” value ([2]; in Säureamid Nr. 11, Rt) was 29,4%, the “Löslichkeit in (%)” value ([2]; in Säureamid Nr. 12, Rt) was 33,3% and the “Löslichkeit in (%)” value ([2]; in Säureamid Nr. 13, Rt) was 31,1%. It also gave a remaining at 5 min, 2000 µM [3, 6] of 99.5%, a remaining at 20 min, 2000 µM [3, 6] of 98.1% and a remaining at 1 h, 2000 µM [3, 6] of 95.5%. For the same compound, the remaining at 7 min, 2000 µM [3, 7] was 98.5%, the remaining at 0.5 h, 2000 µM [3, 7] was 87.2% and the remaining at 1.05 h, 2000 µM ([3]; dimethylformamid (technisch), Dimethylformid (technisch), 70°C, Abbauzeit 63 min, read-out: Wirkstoffgehalt) was 57.4%. The remaining at 7 min, 2000 µM ([3]; dimethylformamid (technisch), Dimethylformid (technisch), 80°C, read-out: Wirkstoffgehalt) was 85.4%, the remaining at 23 min, 2000 µM ([3]; dimethylformamid (technisch), Dimethylformid (technisch), 80°C, Abbauzeit 23 min, read-out: Wirkstoffgehalt) was 54.7% and the remaining at 37 min, 2000 µM ([3]; dimethylformamid (technisch), Dimethylformid (technisch), 80°C, Abbauzeit 37 min, read-out: Wirkstoffgehalt) was 32.9%. For the same compound, the remaining at 24 h, 2000 µM ([3]; isophoron, 80°C, Abbauzeit 24 Std., read-out: Wirkstoffgehalt) was 93%, the remaining at 5 min, 2000 µM [3, 8] was 92.3% and the remaining at 20 min, 2000 µM [3, 8] was 76.5%. For the same compound, the remaining at 1 h, 2000 µM [3, 8] was 52.8%, the remaining at 5 min, 2000 µM [3, 9] was 100% and the remaining at 0.5 h, 2000 µM [3, 9] was 96.7%. It also gave a remaining at 3.5 h, 2000 µM ([3]; n-methylpyrrolidone, N-Methylpyrrolidon (rein 0,05% H2O), 30°C, Abbauzeit 210 min, read-out: Wirkstoffgehalt) of 76.3%.
For CC1=CC(=O)CC(C)(C)C1 [Isophoron, reference compound], the “H2O-Löslichkeit des Lösungsmittels (%) Gew.-% Lösungs-mittel in Wasser” value [1] was 1,2%.
In the case of CCCN(CCC)C(=O)C(C)C [compound 8], the “Wasserlöslichkeit der Lösungsmittel (%)” value [1] is reported as 1,6%.
With COC(=O)Nc1cccc(OC(=O)Nc2cccc(C)c2)c1 [Phenmedipham, 3-Methoxycarbonylaminophenyl-N-(3'-methyl-phenyl)-carbamat] the “Phenmedipham-Abbau Wirkstoffgehalt” value ([4]; formulation (g/l): 50 Phenmedipham, 150 Chloridazon, 200 Netzmittel, 50 Emulgiermittel, ad 1000 g Dimethylformamid, 50°C, 4 Wochen, 40320 min) was 4,8%, the “Phenmedipham-Abbau Wirkstoffgehalt” value ([4]; formulation (g/l): 50 Phenmedipham, 150 Chloridazon, 200 Netzmittel, 50 Emulgiermittel, ad 1000 g Dimethylformamid, Rt, 4 Wochen, 40320 min) was 79,5% and the “Phenmedipham-Abbau Wirkstoffgehalt” value ([4]; formulation (g/l): 167 Chloridazon, 83 Phenmedipham, 300 N-Methylpyrrolidon, 24 Morpholin, 100 Emulgiermittel, 326 Cyclohexanon-Destillationsrückstände (DE-PS 16 42 216, Beispiel 6/I), 50°C, 1 Stunde) was 30,8%. The “Phenmedipham-Abbau Wirkstoffgehalt” value ([4]; formulation with N-Methylpyrrolidon and Morpholin (DE-PS 16 42 216, Beispiel 6/I), 50°C, 2 Stunden) was 16,4%, the “Phenmedipham-Abbau Wirkstoffgehalt” value ([4]; formulation with N-Methylpyrrolidon and Morpholin (DE-PS 16 42 216, Beispiel 6/I), 50°C, 3 Stunden) was 12,8% and the “Phenmedipham-Abbau Wirkstoffgehalt” value ([4]; formulation with N-Methylpyrrolidon and Morpholin (DE-PS 16 42 216, Beispiel 6/I), 70°C, 1 Stunde) was 3,21%. For the same compound, the Wirkstoffgehalt ([4]; formulation with mixture of Dimethylformamid and Isophoron instead of Dimethylformamid alone, 4 Wochen, 50° C, 40320 min) was “ca. 60%”, the remaining at 24 h ([5]; 2-äthylhexancarbonsäureamid, 2-Äthylhexancarbonsäureamid (Nr. 9 aus Tabelle 4), 50°C) was 98.1% and the remaining at 24 h ([5]; 2-äthylhexancarbonsäureamid, 2-Äthylhexancarbonsäureamid (Nr. 9 aus Tabelle 4), 70°C) was 98%. The remaining at 24 h ([5]; dimethylformamid, 50°C) was 9.3%, the remaining at 24 h ([5]; isophoron, 50°C) was 99.3% and the remaining at 24 h ([5]; isophoron, 70°C) was 96.3%. The remaining at 24 h ([5]; n,n-dipropylbuttersäureamid, N,N-Dipropylbuttersäureamid (Nr. 7 aus Tabelle 4), 50°C) was 100%, the remaining at 24 h ([5]; n,n-dipropylbuttersäureamid, N,N-Dipropylbuttersäureamid (Nr. 7 aus Tabelle 4), 70°C) was 97.6% and the remaining at 24 h ([5]; n,n-diäthyl-3-methyl-benzolcarbonsäureamid, N,N-Diäthyl-3-methyl-benzolcarbonsäureamid (Nr. 11 Tabelle 4), 50°C) was 95.5%. It also gave a remaining at 24 h ([5]; n,n-diäthyl-3-methyl-benzolcarbonsäureamid, N,N-Diäthyl-3-methyl-benzolcarbonsäureamid (Nr. 11 Tabelle 4), 70°C) of 60%.
In the case of CCCC(=O)N(CCC)CCC [compound 7], the “Wasserlöslichkeit der Lösungsmittel (%)” value [1] is reported as 1,5%.
With CCCN(CCC)C(=O)c1ccccc1 [compound 12] the “Wasserlöslichkeit der Lösungsmittel (%)” value [1] was 0,5%.
With Nc1cnn(-c2ccccc2)c(=O)c1Cl [Substanz 1, 1-Phenyl-4-amino-5-chlor-pyridazon-(6), reference compound] the Stabilität ([3]; in the solvents of Tabelle 2) was “keine Schwierigkeiten”.
In the case of CCCCC(CC)C(=O)N(C)C (centres unmarked) [compound 9], the “Wasserlöslichkeit der Lösungsmittel (%)” value [1] is reported as 1,5%.
